Data taken from ChEMBL document CHEMBL1132876, “Examination of N-hydroxylation as a prerequisite mechanism of nitric oxide synthase inactivation” (Bioorg Med Chem Lett, 2000).

Legend:
[1] = target: T1, Nitric oxide synthase, inducible (Mus musculus, UniProt P29477); test: The compound was tested for competitive antagonist of Nitric oxide synthase; type: functional
T1 sequence (P29477 whole entry): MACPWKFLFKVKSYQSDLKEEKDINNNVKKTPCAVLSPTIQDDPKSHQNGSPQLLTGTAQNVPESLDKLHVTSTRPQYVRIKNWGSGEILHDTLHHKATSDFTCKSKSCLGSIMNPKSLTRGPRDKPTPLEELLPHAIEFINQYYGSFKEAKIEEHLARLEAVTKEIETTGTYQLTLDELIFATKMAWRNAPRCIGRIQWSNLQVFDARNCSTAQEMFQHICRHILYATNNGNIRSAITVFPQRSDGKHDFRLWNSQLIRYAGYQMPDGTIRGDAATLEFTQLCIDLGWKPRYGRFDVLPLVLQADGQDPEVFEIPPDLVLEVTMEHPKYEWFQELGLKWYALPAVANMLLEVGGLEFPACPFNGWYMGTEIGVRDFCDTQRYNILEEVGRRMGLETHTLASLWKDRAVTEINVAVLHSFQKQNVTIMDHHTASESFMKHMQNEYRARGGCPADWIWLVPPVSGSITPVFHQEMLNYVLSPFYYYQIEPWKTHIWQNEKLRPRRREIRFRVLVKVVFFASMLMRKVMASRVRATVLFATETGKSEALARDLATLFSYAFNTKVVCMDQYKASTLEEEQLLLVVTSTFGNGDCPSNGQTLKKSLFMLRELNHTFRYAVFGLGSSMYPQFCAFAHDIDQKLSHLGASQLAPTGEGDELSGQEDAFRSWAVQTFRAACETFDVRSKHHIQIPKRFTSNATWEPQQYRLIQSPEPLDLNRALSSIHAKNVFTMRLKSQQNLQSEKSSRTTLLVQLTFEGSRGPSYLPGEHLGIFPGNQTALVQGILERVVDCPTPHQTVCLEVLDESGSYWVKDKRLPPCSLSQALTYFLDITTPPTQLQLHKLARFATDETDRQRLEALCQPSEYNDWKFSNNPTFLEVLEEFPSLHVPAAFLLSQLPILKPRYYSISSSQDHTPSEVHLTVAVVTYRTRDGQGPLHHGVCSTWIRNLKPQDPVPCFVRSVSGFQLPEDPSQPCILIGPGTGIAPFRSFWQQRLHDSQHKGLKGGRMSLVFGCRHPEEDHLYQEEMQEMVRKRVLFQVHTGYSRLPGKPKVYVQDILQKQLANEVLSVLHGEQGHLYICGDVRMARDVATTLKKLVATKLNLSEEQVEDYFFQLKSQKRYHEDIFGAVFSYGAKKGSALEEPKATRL

[2] = target: T2, Nitric oxide synthase, inducible (Mus musculus) (UniProt P29477)
T2 sequence (whole entry): T1 sequence (P29477 whole entry)
Description: Pseudo-first order inactivation rate constant against nitric oxide synthase was determined

[3] = target: T1, Nitric oxide synthase, inducible; test: Compound was tested for competitive antagonist of Nitric oxide synthase; type: functional

Compound: CC(=NO)NCCC[C@H](N)C(=O)O
- Ki [1]: 37.7 µM

Compound: CC(=NO)NCCCC[C@H](N)C(=O)O
- Ki [1]: 41.1 µM

Compound: CC(=N)NCCCC[C@H](N)C(=O)O [L-NIL]
- kinact [2]: 0.35 min⁻¹
- Ki [1]: 2.16 µM

Compound: CC(=N)NCCC[C@H](N)C(=O)O [L-NIO]
- kinact [2]: 0.16 min⁻¹
- Ki [3]: 1.42 µM
